ChEMBL document CHEMBL1150635, “Cytotoxic pyrrolo- and furanoterpenoids from the sponge sarcotragus species” (2002)
Converted amounts (≈) assume the structure as drawn.

What was measured:
Type in all cases: functional
Settings in all cases: read-out: ED50 (the source's name)
XF498 = assay: Cytotoxicity against human XF498 cells
A549 = assay: Cytotoxicity against human A549 cells
SK-OV-3 = assay: Cytotoxicity against human SKOV3 cells
SK-MEL-2 = assay: Cytotoxicity against human SK-MEL-2 cells
HCT-15 = assay: Cytotoxicity against human HCT15 cells

Compound	EC50 (XF498)	EC50 (A549)	EC50 (SK-OV-3)	EC50 (SK-MEL-2)	EC50 (HCT-15)
COC(=O)C(O)C/C(C)=C\CC[C@H](C)/C=C/C=C(\C)CCCc1ccoc1 (stereo not given in full) [SARCOTIN J]	24.3 µg/mL (≈ 64.9 µM)	18.1 µg/mL (≈ 48.3 µM)	10 µg/mL (≈ 26.7 µM)	7.8 µg/mL (≈ 20.8 µM)	8.7 µg/mL (≈ 23.2 µM)
CO[C@]1(Cc2ccoc2)C=C(CC/C=C(\C)CCC[C@@H](C)/C=C2\OC(=O)C(C)=C2O)C(=O)O1 [SARCOTIN G]	7.6 µg/mL (≈ 16.6 µM)	9.1 µg/mL (≈ 19.9 µM)	10 µg/mL (≈ 21.9 µM)	5.1 µg/mL (≈ 11.2 µM)	7.3 µg/mL (≈ 16 µM)
C/C(=C/CC[C@@H](C)/C=C/C=C(\C)CCCc1ccoc1)CC(O)C(=O)[O-].[Na+] (stereo not given in full) [SARCOTIN I]	25.9 µg/mL	24.8 µg/mL	23.3 µg/mL	25.7 µg/mL	23.7 µg/mL
CO[C@]1(Cc2ccoc2)C=C(CCC/C(C)=C\CC[C@@H](C)/C=C2\OC(=O)C(C)=C2O)C(=O)O1 [SARCOTIN H]	6.3 µg/mL (≈ 13.8 µM)	6.7 µg/mL (≈ 14.7 µM)	6.8 µg/mL (≈ 14.9 µM)	5.9 µg/mL (≈ 12.9 µM)	6.1 µg/mL (≈ 13.4 µM)
CCC(C)CN1CC=C(CCC/C(C)=C/C=C/[C@@H](C)CC/C=C(/C)C[C@@H]2OC(=O)C(C)=C2O)C1=O (stereo not given in full) [SARCOTRINE C]	5.4 µg/mL (≈ 11.2 µM)	19 µg/mL (≈ 39.3 µM)	6.9 µg/mL (≈ 14.3 µM)	3.8 µg/mL (≈ 7.86 µM)	5.3 µg/mL (≈ 11 µM)
CC1=C(O)[C@@H](C/C(C)=C\CC[C@H](C)/C=C/C=C(\C)CCCC2=CCN(CCc3ccccc3)C2=O)OC1=O [EPI-SARCOTRINE B]	10.5 µg/mL (≈ 20.3 µM)	16.8 µg/mL (≈ 32.5 µM)	13.1 µg/mL (≈ 25.3 µM)	4.8 µg/mL (≈ 9.27 µM)	5.4 µg/mL (≈ 10.4 µM)
COC1C=C(CCC/C(C)=C/C=C/[C@@H](C)CC/C=C(/C)C[C@@H]2OC(=O)C(C)=C2O)C(=O)O1 (stereo not given in full) [SARCOTIN F]	20.1 µg/mL (≈ 45.2 µM)	24.1 µg/mL (≈ 54.2 µM)	15.2 µg/mL (≈ 34.2 µM)	7.6 µg/mL (≈ 17.1 µM)	10.5 µg/mL (≈ 23.6 µM)
CC1=C(O)[C@H](C/C(C)=C\CC[C@H](C)/C=C/C=C(\C)CCCC2=CCN(CCc3ccccc3)C2=O)OC1=O [SARCOTRINE B]	5.2 µg/mL (≈ 10 µM)	6.3 µg/mL (≈ 12.2 µM)	6.7 µg/mL (≈ 12.9 µM)	4.3 µg/mL (≈ 8.31 µM)	4.9 µg/mL (≈ 9.46 µM)
CC1=C(O)[C@@H](C/C(C)=C\CC[C@H](C)/C=C/C=C(\C)CCCc2ccoc2)OC1=O [EPI-SARCOTIN A]	9.8 µg/mL (≈ 24.6 µM)	12.3 µg/mL (≈ 30.9 µM)	9.6 µg/mL (≈ 24.1 µM)	5.6 µg/mL (≈ 14.1 µM)	6.5 µg/mL (≈ 16.3 µM)
COC(/C=C/[C@@H](C)CC/C=C(/C)C[C@@H]1OC(=O)C(C)=C1O)C(C)(O)CCCc1ccoc1 (stereo not given in full) [SARCOTIN M]	11.3 µg/mL (≈ 25.3 µM)	9 µg/mL (≈ 20.2 µM)	8.4 µg/mL (≈ 18.8 µM)	9.9 µg/mL (≈ 22.2 µM)	10.1 µg/mL (≈ 22.6 µM)
CC1=C(O)[C@H](C/C(C)=C\CC[C@H](C)/C=C/C=C(\C)CCCC2=CCN(CCC(C)C)C2=O)OC1=O [SARCOTRINE A]	5.5 µg/mL (≈ 11.4 µM)	15.1 µg/mL (≈ 31.2 µM)	5.3 µg/mL (≈ 11 µM)	4.1 µg/mL (≈ 8.48 µM)	5 µg/mL (≈ 10.3 µM)
CC1=C(O)[C@@H](C/C(C)=C\CC[C@H](C)/C=C/C=C(\C)CCCC2=CCN(CCC(C)C)C2=O)OC1=O [EPI-SARCOTRINE A]	3.9 µg/mL (≈ 8.06 µM)	4.3 µg/mL (≈ 8.89 µM)	4 µg/mL (≈ 8.27 µM)	3.4 µg/mL (≈ 7.03 µM)	3.8 µg/mL (≈ 7.86 µM)
COc1cccc2c1C(=O)c1c(O)c3c(c(O)c1C2=O)C[C@@](O)(C(=O)CO)C[C@@H]3O[C@H]1C[C@H](N)[C@H](O)[C@H](C)O1 [DOXORUBICIN]	0.13 µg/mL (≈ 0.239 µM)	0.02 µg/mL (≈ 0.0368 µM)	0.16 µg/mL (≈ 0.294 µM)	0.02 µg/mL (≈ 0.0368 µM)	0.06 µg/mL (≈ 0.11 µM)
CCC(C)CN1CC=C(CCC/C(C)=C/C=C/[C@@H](C)CC/C=C(/C)C[C@H]2OC(=O)C(C)=C2O)C1=O (stereo not given in full)	25.2 µg/mL (≈ 52.1 µM)	27.1 µg/mL (≈ 56 µM)	26.8 µg/mL (≈ 55.4 µM)	15.9 µg/mL (≈ 32.9 µM)	22.3 µg/mL (≈ 46.1 µM)
CC1=C(O)[C@H](C/C(C)=C\CC[C@H](C)/C=C/C=C(\C)CCCC2=CC(=O)N(CCC(C)C)C2)OC1=O [SARCOTRINE D]	> 30 µg/mL	> 30 µg/mL	25.9 µg/mL (≈ 53.5 µM)	13.2 µg/mL (≈ 27.3 µM)	21.6 µg/mL (≈ 44.7 µM)
